The experiment can be described thus: Body weight of low protein model rat fed amino acid added diet. The settings on record: vs 1% C group. Format: in vivo. As to the method: Using 10-week-old CD(SD) male rats, they were raised on a 1 wt % casein feed obtained by reducing the protein in standard purified diet AIN-93G (manufactured by Oriental yeast Co., Ltd.) (Table 14). The animal fed on the 1 wt % casein diet for 28 days (4 weeks) was used as a low protein model, and an influence of amino acid administration was evaluated. 10-week-old CD(SD) male rats were divided into the groups shown in Table 17, casein 20 wt % (20% C group) or 1 wt % feed was fed for 28 days according to the schedule shown in FIG. 1, and the body weight of rats thereafter fed with a 1 wt % casein diet (1% C group),and further added with each amino acid shown in Table 16 (4AA addition group (4AA group); a group of 4AA less tryptophan (−Trp group); a group of 4AA less methionine (−Met group); and a group of 4AA less threonine (−Thr group)) was measured. 10-week-old CD(SD) male rats were divided into the groups shown in Table 18, casein 20 wt % (20% C group) or 1 wt % feed was fed for 28 days according to the schedule shown in FIG. 1, and the body weight of rats thereafter fed with a 1 wt % casein diet (1% C group), and further added with the amino acid shown in Table 16 (4AA addition group (4AA group); an isoleucine and threonine combined use group (Ile, Thr group); an isoleucine addition group (Ile group); and the a threonine addition group (Thr group)) was measured. 10-week-old CD(SD) male rats were divided into the groups shown in Table 19, casein 20 wt % (20% C group) or 1 wt % feed was fed for 28 days according to the schedule shown in FIG. 1, and the body weight and weight of viscera-isolated carcass of rats thereafter fed for 14 days with a 1 wt % casein diet (1% C group), and further added with 1.15 g of the amino acid shown in Table 20 per 1 kg feed (4AA addition group (4AA group); a group of essential and non-essential amino acids addition group less 4AA (ALL-4AA group); essential amino acid addition group less 4AA (EAA-4AA group), non-essential amino acid addition group (NEAA group); and glycine addition group (Gly group)) was measured. […]

Setting [1] is: Experimental Example 4, 14 days after feeding amino acid added 1 wt % casein diet, FIG. 5.

SMILES strings stand for the structures.

In the case of `C[C@@H](O)[C@H](N)C(=O)O` [Thr, threonine], the “body weight (ratio to day 0)” value under setting [1] is recorded as “significantly recovered”. With `CC[C@H](C)[C@H](N)C(=O)O` [Ile, isoleucine], the “body weight (ratio to day 0)” value under setting [1] is on record as “increase of the body weight was weakened”. `NCC(=O)O` [Gly, glycine]: the “body weight (ratio to day 0)” value (Experimental Example 5, 14 days after feeding diet with 1.15 g amino acid per 1 kg feed, FIG. 6) is “not recovered”.

For the origin of these results see patent US20160367529A1, “DEBILITY PREVENTATIVE” (AJINOMOTO CO., INC., priority 2014, published 2016).
